Laboratory results published in patent publication US11419865B2, “Method for inducing a sustained immune response” (Cytocom Inc., priority 2016, dated 2022).

What was measured:
cancer patients [1] = assay: cancer case reports; format: in vivo, human
Method: person diagnosed with stage 3-stomach cancer prognosis 6 months to live on Mar. […] 28, 2007. In addition to Immediate release naltrexone patients received chemotherapy and kidney stents inserted. […].
Person diagnosed with stage 4 pleural mesothelioma in December of 2008 and patients after consult with two other doctors it was determined due to the state of the diseases and other health issues to watch the tumors and not do chemotherapy. Prognosis was 6 to 12 months. Patient started 4.5 mg nightly and received on other treatment but did change diet. […] […].
A person diagnosed with stage 4-colon cancer, 2007 which had spread to their lungs and liver, they removed 40% of their colon and began a round of chemotherapy and three surgeries removed 40% of their colon, half is their right lung and 75% of their liver. During the next 18 months received 47 weeks of chemotherapy (a combination of 4 chemo drugs at once). […].
person was diagnosed with stage 3 prostate cancer which they were originally treated for 5 years before began 3 rounds of Docetaxel (Taxotere®). They were prescribed 4.5 mg of […]

[2] = tested on: autistic children, lymphocyte subsets; assay: behavioral and immunological assessment in autism during double-blind naltrexone treatment; format: in vivo, human
Text: Opioid-immune interactions in autism: behavioral and immunological assessment during a double-blind treatment with naltrexone.
Changes in natural killer cells and activity were inversely related to plasma beta-endorphin levels.

[3] = tested on: children with moderate to severe Crohn's disease; assay: pilot clinical trial in children with moderate to severe Crohn's disease; format: in vivo, human; set-up: patients in remission (PCDAI score≤10): unit not given here
Method: A pilot clinical trial was conducted in children with moderate to severe Crohn's disease. Fourteen subjects with a mean age of 12.3 years (range, 8 to 17 y) were enrolled. […]. Safety and toxicity were monitored by physical examinations and blood chemistries. Clinical activity was assessed by the Pediatric Crohn's Disease Activity Index (PCDAI) and Quality of life was monitored by the Impact III survey. […] […].

women with fibromyalgia = assay: randomized, double blind, placebo-controlled crossover study, 31 women with fibromyalgia; format: in vivo, human; settings: 4.5 mg daily
Text: Thirty-one women with fibromyalgia participated in the randomized, double blind, placebo-controlled, and counterbalanced, crossover study. […]. An intensive longitudinal design was used to measure daily levels of pain. […]; P=0.016). […]. […] […]; P=0.016). […].

[4] = tested on: multiple sclerosis (MS) patients; assay: double-masked, placebo-controlled crossover pilot trial on quality of life in multiple sclerosis, 80 patients; format: in vivo, human; settings: 4.5 mg nightly
Text: RESULTS: Eighty subjects with clinically definite MS were enrolled, and 60 subjects completed the trial. Ten withdrew before completing the first trial period: 8 for personal reasons, 1 for a non-MS-related adverse event, and 1 for perceived benefit. Database management errors occurred in 4 other subjects, and quality of life surveys were incomplete in 6 subjects for unknown reasons. […] LDN was associated with significant improvement on the following mental health quality of life measures: a 3.3-point improvement on the Mental Component Summary score of the Short Form-36 General Health Survey (p=0.04), a 6-point improvement on the Mental Health Inventory (p<0.01), a 1.6-point improvement on the Pain Effects Scale (p=0.04), and a 2.4-point improvement on the Perceived Deficits Questionnaire (p=0.05). […] Further studies with LDN in MS are warranted.

[5] = tested on: psoriatic arthritis patient; assay: psoriatic arthritis case report; format: in vivo, human
[6] = tested on: Rheumatoid Arthritis patients; assay: rheumatoid arthritis case reports; format: in vivo, human
Method: A person diagnosed with Rheumatoid Arthritis in 2006 and was being treated with methotrexate and plaquenil but patients continued with pain and fatigue. […]
A person diagnosed 5 years ago with RA was treated with Methotrexate 25 mg per week and Remicade 300 U every 6 weeks, the fatigue and pain continued, along with the inflammation and general weakness. Sleep disturbed nightly due to pain in my shoulders and hips. Patient felt their life was not acceptable and none of the immunosuppression drugs were helping. […] Within two weeks patient stopped even ibuprophen. Rheumatoid factor has gone from 127 to 66 in 4 months and has stayed stable. […] Occasionally patient has pain but it is easily controlled with a normal dosage of ibuprophen.
A person, diagnosed with RA in 1999 stayed very active until 2005 on a combination of Methotrexate and Prednisone but was have difficulty maintaining their business due to fatigue and severe joint pain with deformity of their hands and elbows. Patient was told to increase their does and start a second immunomodulating drug. Patient no longer wanted to continue with immunosuppression drug or steroids due to the side effects. […]; they have no pain that can't be handled with aspirin.

systemic lupus patients = assay: systemic lupus case reports; format: in vivo, human
Text: […]. […] […].
Psoriasis mostly resolved.

cancer patients [7] = settings: cited from earlier work
children with autism = assay: autism case reports
[8] = 0.1 mg/kg orally, end of the study

O=C1CC[C@@]2(O)[C@H]3Cc4ccc(O)c5c4[C@@]2(CCN3CC2CC2)[C@H]1O5 [Immediate release naltrexone, naltrexone]
tolerance of chemotherapy, person, stage 4-colon cancer (cancer patients [1]; 4.5 mg nightly from June of 2007 with chemotherapy): able to complete the entire protocol without any major side effects at all
tolerance of chemotherapy, person, stage 3 prostate cancer (cancer patients [1]; 4.5 mg nightly with 3 rounds of Docetaxel): able to withstand the chemotherapy and their blood work stayed stable throughout the protocol
CAT scans, person, stage 4 pleural mesothelioma (cancer patients [1]; 4.5 mg nightly, no chemotherapy, February 2009 and 2010): no measurable growth of tumors
disease course, person, stage 4-colon cancer (cancer patients [1]; 4.5 mg nightly, scans every six months): continued cancer free until June of 2015
CT scan, person, stage 3-stomach cancer (cancer patients [1]; 4.5 mg with chemotherapy, September 2007): tumors shrunk in half
disease status, person, stage 3-stomach cancer (cancer patients [1]; 4.5 mg, December of 2007): in remission and stable
CT scan, person, stage 3-stomach cancer (cancer patients [1]; 4.5 mg, March 2008): tumors had shrunk in half
scan, person, stage 3-stomach cancer (cancer patients [1]; 4.5 mg, March of 2009): tumors were stable
T-cytotoxic-suppressor (CD4−CD8+) [2]: significant reduction
T-helper-inducers (CD4+CD8−) [2]: significant increase
safety and tolerability ([3]; 0.1 mg/kg orally): well tolerated without any serious adverse events
patients improved with mild disease activity (decrease in PCDAI score by at least 10 points) [3, 8]: 67%
patients in remission (PCDAI score≤10) [3, 8]: Twenty-five
Systemic and social quality of life (Impact III) ([3]; P=0.035): improved
fatigue or sleep (women with fibromyalgia): not improved fatigue or sleep
tolerability and side effects (women with fibromyalgia): rated equally tolerable as placebo, and no serious side effects were reported
mood (women with fibromyalgia; P=0.039): improved mood
general satisfaction with life (women with fibromyalgia; P=0.045): improved general satisfaction with life
participants meeting the criteria for response (women with fibromyalgia; placebo 11%, P=0.05): Thirty-two
tolerability and serious adverse events [4]: well tolerated, and serious adverse events did not occur
improvement on the Mental Component Summary score of the Short Form-36 General Health Survey ([4]; 8 weeks, p=0.04): 3.3 point
medication use, person, psoriatic arthritis ([5]; 4.5 mg at bedtime, within 10 days): able to discontinue all paid medications as well as the Humira
disease course, person, psoriatic arthritis ([5]; 4.5 mg, last six months): the disease has stabilized and the progressive deterioration has stopped
medication use, person, Rheumatoid Arthritis ([6]; 1.5 mg titrated up to 4.5 mg from April of 2009): Successfully discontinued methotrexate March of 2010 and then discontinued plaquenil in October of 2010
fatigue, person, RA ([6]; 4.5 mg at bedtime): Fatigue is gone
Rheumatoid factor, person, RA ([6]; 4.5 mg at bedtime, from 127 in 4 months): 66
medication use, person, RA ([6]; 4.5 mg at bedtime, within 7 days): stooped all traditional RA medications
disease course, person, RA ([6]; 4.5 mg with diet, supplements, hormones etc., 7 years later): RA has not advanced
MRSA recurrence, person, systemic lupus (systemic lupus patients; 1.5 mg): No recurrence of MRSA in 8 years
tolerability, person, systemic lupus (systemic lupus patients; 1.5 mg starting dose): unable to take it due to insomnia and pruritis
mobility, person, Systemic Lupus (systemic lupus patients; 3 mg from March 2013, within three weeks): improved mobility
skin, person, Systemic Lupus (systemic lupus patients; 3 mg increasing to 4.5 mg, within 4 months): skin cleared almost 100%
hospital stays, person, Systemic Lupus (systemic lupus patients; 4.5 mg): no hospital stays since March of 2013
disease status, person, systemic lupus (systemic lupus patients; liquid form, 0.1 mg increased weekly to 1.5 mg, with supplements, diet): Lupus, in remission
disease course, person, adenocarcinoma of the pancreas with liver metastases (cancer patients [7]; 4.5 mg once per day at bedtime with i.v. and oral ALA, selenium, silymarin, diet): comparatively stable disease for more than a 3-year period and an improved quality of life
follow-up status, person, Follicular Lymphoma (cancer patients [7]; 2007 report): remains asymptomatic from their disease, 1 year after their last CT/PET imaging
disease outcome, person, Follicular Lymphoma (cancer patients [7]; daily in the evening, after 6 months, not compliant with diet, supplement, ALA): clinical and radiological remission
initial effect, child, Autism (children with autism; 3 mg): hyperactivity increased for the first three weeks
side effect, child, Autism (children with autism; 5 ml at bedtime): a little constipation
